What all share (assay type): ADME
Data set [1] in a line: Drug metabolism in human liver microsomes assessed as glucuronidation after 10 mins by Michaelis-Menten plot analysis in presence of UDPGA. In general terms: Liver microsomes are vesicles of endoplasmic reticulum, rich in cytochrome P450 enzymes.
In data set [2] the target is T1, UDP-glucuronosyltransferase 2B7 (Homo sapiens, UniProt P16662).
T1 sequence (P16662 whole entry): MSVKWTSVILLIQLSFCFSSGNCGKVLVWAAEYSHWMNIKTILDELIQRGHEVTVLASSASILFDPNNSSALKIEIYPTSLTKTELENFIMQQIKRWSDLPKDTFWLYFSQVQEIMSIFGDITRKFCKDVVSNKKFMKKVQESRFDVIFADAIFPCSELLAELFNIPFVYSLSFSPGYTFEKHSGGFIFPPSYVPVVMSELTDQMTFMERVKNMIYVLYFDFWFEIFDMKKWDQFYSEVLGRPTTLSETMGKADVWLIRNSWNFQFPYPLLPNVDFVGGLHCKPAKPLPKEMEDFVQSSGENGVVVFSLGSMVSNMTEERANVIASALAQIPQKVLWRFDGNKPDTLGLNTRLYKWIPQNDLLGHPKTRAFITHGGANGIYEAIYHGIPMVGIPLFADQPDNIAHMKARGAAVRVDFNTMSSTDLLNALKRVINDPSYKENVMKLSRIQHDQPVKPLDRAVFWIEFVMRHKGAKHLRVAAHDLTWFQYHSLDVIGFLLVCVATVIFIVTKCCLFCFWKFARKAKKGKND
Kind of data set: Activity of human recombinant UGT2B7 expressed in baculovirus-infected insect cells assessed as enzyme-mediated glucuronidation per mg of protein after 10 mins in presence of UDPGA.

Data set [3] deals with T2, UDP-glucuronosyltransferase 1A7 (Homo sapiens, UniProt Q9HAW7).
T2 sequence (Q9HAW7 whole entry): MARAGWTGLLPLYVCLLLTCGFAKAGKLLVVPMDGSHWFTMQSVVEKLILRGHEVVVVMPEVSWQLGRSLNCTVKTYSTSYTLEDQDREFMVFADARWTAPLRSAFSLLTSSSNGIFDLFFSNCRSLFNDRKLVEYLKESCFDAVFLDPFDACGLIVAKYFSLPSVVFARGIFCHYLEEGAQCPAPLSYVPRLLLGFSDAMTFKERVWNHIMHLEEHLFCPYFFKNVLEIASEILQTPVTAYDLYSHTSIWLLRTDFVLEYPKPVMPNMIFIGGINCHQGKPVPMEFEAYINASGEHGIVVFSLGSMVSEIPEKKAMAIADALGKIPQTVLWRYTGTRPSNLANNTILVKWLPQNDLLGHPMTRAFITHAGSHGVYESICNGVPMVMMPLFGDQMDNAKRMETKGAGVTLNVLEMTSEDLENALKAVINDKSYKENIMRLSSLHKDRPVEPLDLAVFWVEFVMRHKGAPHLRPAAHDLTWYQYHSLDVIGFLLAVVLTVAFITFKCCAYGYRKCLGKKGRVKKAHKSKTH
Kind of data set: Activity of human recombinant UGT1A7 expressed in baculovirus-infected insect cells assessed as intrinsic clearance for enzyme-mediated glucuronide formation per mg of protein at 1 to 250 uM after 10 mins by Michaelis-Menten plot analysis in presence of UDPGA.

The target in data set [4] is T3, UDP-glucuronosyltransferase 1A8 (Homo sapiens, UniProt Q9HAW9).
T3 sequence (Q9HAW9 whole entry): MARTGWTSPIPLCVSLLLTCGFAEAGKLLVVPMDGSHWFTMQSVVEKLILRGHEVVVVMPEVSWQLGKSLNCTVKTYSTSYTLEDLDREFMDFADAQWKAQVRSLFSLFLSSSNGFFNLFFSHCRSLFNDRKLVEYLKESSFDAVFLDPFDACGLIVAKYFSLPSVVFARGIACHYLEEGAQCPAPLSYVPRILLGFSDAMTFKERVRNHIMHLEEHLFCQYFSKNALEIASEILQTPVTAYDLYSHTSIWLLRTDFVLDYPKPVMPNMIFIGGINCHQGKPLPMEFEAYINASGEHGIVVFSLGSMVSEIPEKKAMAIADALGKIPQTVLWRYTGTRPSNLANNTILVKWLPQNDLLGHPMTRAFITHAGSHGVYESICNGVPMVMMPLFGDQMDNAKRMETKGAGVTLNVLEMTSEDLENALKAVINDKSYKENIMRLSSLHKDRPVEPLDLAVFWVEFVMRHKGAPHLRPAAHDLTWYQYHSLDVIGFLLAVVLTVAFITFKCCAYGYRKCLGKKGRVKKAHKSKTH
Kind of data set: Activity of human recombinant UGT1A8 expressed in baculovirus-infected insect cells assessed as enzyme-mediated glucuronidation per mg of protein after 10 mins in presence of UDPGA.

Data set [5] has as its target T4, UDP-glucuronosyltransferase 1A9 (Homo sapiens, UniProt O60656).
T4 sequence (O60656 whole entry): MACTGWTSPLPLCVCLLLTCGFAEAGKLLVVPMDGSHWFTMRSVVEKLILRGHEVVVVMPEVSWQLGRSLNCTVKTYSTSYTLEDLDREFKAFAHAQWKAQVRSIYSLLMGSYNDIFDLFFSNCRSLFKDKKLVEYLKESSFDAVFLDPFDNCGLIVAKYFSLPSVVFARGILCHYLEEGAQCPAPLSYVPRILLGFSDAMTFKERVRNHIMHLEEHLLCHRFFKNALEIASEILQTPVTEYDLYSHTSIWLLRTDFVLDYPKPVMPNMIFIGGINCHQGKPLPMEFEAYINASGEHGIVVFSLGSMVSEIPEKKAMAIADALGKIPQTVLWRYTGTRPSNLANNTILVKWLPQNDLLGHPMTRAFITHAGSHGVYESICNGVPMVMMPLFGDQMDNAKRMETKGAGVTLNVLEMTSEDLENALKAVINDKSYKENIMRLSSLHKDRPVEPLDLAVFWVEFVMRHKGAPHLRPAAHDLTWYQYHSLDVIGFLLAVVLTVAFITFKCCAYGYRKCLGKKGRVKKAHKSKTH
Kind of data set: Activity of human recombinant UGT1A9 expressed in baculovirus-infected insect cells assessed as unbound intrinsic clearance for enzyme-mediated glucuronidation per mg of protein after 5 mins by Michaelis-Menten plot analysis in presence of UDPGA and 0.5% fatty acid free BSA.

Data set [6] is described as follows: Fraction unbound in human liver microsomes at 1 to 250 uM after 10 mins by ultrafiltration method in presence of 2% fatty acid free BSA.
Data set [7] is described as follows: Ratio of Km for drug metabolism in human liver microsomes to Km for human recombinant UGT-mediated drug metabolism. Conditions: recombinant enzyme.

The values that follow come from ChEMBL document CHEMBL3526122, “Identification of UDP-glucuronosyltransferases responsible for the glucuronidation of darexaban, an oral factor Xa inhibitor, in human liver and intestine” (Drug Metab Dispos, 2012).

The structures appear in SMILES notation.

In the case of `COc1ccc(C(=O)Nc2cccc(O)c2NC(=O)c2ccc(N3CCCN(C)CC3)cc2)cc1.O=C(O)CCC(=O)O`, the Km (as a rule, the concentration of substrate that gives half-maximal velocity) at 10 min in data set [1] was more than 250 µM. Moreover, the Drug metabolism in data set [2] is less than 0.01 nmol/min/mg; in data set [4] it was 0.393 nmol/min/mg. Besides, the clearance in data set [3] was 12.3 µL/min/mg. Further, the CL free in data set [5] came to 257 µL/min/mg. In data set [6], the fraction unbound (commonly the share of the substance not bound to proteins or other matrix) at 10 min, up to 250 µM was 0.251. Besides, the Ratio in data set [7] came out at 4.2.
